Measurements published in ChEMBL document CHEMBL4610014, “Discovery of novel 2,4-disubstituted pyrimidines as Aurora kinase inhibitors” (Bioorg Med Chem Lett, 2020).
Values belong to the compound of their own block, whether it stands above or below them. Activity calls are given as the source filed them. The rule behind the calls is not given here.

How the values were obtained:
A549 = assay: Antiproliferative activity against human A549 cells assessed as reduction in cell viability after 72 hrs by MTT assay; format: functional, cell-based; details: A549, 72 h
HCT-116 [1] = assay: Antiproliferative activity against human HCT116 cells assessed as reduction in cell viability after 72 hrs by MTT assay; format: functional, cell-based; details: HCT-116, 72 h
MCF7 = assay: Antiproliferative activity against human MCF7 cells assessed as reduction in cell viability after 72 hrs by MTT assay; format: functional, cell-based; details: MCF7, 72 h
Aurora kinase A = target: T1, Aurora kinase A (Homo sapiens, UniProt O14965); assay: Inhibition of Aurora A (unknown origin) after 1 hr in presence of ATP by Kinase-Glo reagent-based luminescence assay
T1 sequence (O14965 whole entry): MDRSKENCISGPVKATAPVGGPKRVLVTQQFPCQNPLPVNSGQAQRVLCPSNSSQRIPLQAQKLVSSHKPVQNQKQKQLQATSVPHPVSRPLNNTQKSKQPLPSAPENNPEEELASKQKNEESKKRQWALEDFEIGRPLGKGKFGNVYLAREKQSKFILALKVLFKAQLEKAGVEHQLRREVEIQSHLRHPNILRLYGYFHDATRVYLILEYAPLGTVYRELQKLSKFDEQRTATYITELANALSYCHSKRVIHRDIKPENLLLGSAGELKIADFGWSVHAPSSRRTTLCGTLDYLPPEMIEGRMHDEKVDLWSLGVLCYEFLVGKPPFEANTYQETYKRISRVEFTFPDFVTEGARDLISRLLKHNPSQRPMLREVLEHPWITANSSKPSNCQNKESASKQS

Aurora kinase B [2] = target: T2, Aurora kinase B (Homo sapiens, UniProt Q96GD4); assay: Inhibition of Aurora B (unknown origin) after 1 hr in presence of ATP by Kinase-Glo reagent-based luminescence assay
[3] = target: Vascular endothelial growth factor receptor 2 (Homo sapiens) (UniProt P35968); assay: Inhibition of VEGFR2 (unknown origin) at 1 uM after 1 hr in presence of ATP by Kinase-Glo reagent-based luminescence assay relative to control
[4] = target: Phosphatidylinositol 4,5-bisphosphate 3-kinase catalytic subunit alpha isoform (Homo sapiens) (UniProt P42336); assay: Inhibition of PI3Kalpha (unknown origin) at 1 uM after 1 hr in presence of ATP by Kinase-Glo reagent-based luminescence assay relative to control
[5] = target: Fibroblast growth factor receptor 1 (Homo sapiens) (UniProt P11362); assay: Inhibition of FGFR1 (unknown origin) at 1 uM after 1 hr in presence of ATP by Kinase-Glo reagent-based luminescence assay relative to control
[6] = target: T3, Aurora kinase A (Homo sapiens) (UniProt O14965); assay: Inhibition of Aurora A in human HCT116 cells assessed as reduction in phosphorylation at Thr288 residue at 0.5 to 5 uM after 12 hrs by Western blot analysis; format: cell-based; details: HCT-116
T3 sequence (whole entry): T1 sequence (O14965 whole entry)

Aurora kinase B [7] = target: T2, Aurora kinase B; assay: Inhibition of Aurora B in human HCT116 cells assessed as reduction in phosphorylation at Thr232 residue at 0.5 to 5 uM after 12 hrs by Western blot analysis; format: cell-based; details: HCT-116
HCT-116 [8] = assay: Induction of apoptosis in human HCT116 cells assessed as viable cells at 0.1 uM after 48 hrs by Annexin-V/PI-staining based flow cytometry (reference value: 89.72%); format: functional; details: HCT-116, 48 h, read-out: Activity
HCT-116 [9] = assay: Induction of apoptosis in human HCT116 cells assessed as early apoptotic cells at 0.1 uM after 48 hrs by Annexin-V/PI-staining based flow cytometry (reference value: 0.54%); format: functional
HCT-116 [10] = assay: Induction of apoptosis in human HCT116 cells assessed as late apoptotic cells at 0.1 uM after 48 hrs by Annexin-V/PI-staining based flow cytometry (reference value: 3.34%); format: functional
HCT-116 [11] = assay: Induction of apoptosis in human HCT116 cells assessed as necrotic cells at 0.1 uM after 48 hrs by Annexin-V/PI-staining based flow cytometry (reference value: […]); format: functional
HCT-116 [12] = assay: Induction of apoptosis in human HCT116 cells assessed as viable cells at 0.5 uM after 48 hrs by Annexin-V/PI-staining based flow cytometry (reference value: 89.72%); format: functional; details: HCT-116, 48 h, read-out: Activity
HCT-116 [13] = assay: Induction of apoptosis in human HCT116 cells assessed as early apoptotic cells at 0.5 uM after 48 hrs by Annexin-V/PI-staining based flow cytometry (reference value: 0.54%); format: functional
HCT-116 [14] = assay: Induction of apoptosis in human HCT116 cells assessed as late apoptotic cells at 0.5 uM after 48 hrs by Annexin-V/PI-staining based flow cytometry (reference value: 3.34%); format: functional
HCT-116 [15] = assay: Induction of apoptosis in human HCT116 cells assessed as necrotic cells at 0.5 uM after 48 hrs by Annexin-V/PI-staining based flow cytometry (reference value: […]); format: functional
HCT-116 [16] = assay: Induction of apoptosis in human HCT116 cells assessed as viable cells at 1 uM after 48 hrs by Annexin-V/PI-staining based flow cytometry (reference value: 89.72%); format: functional; details: HCT-116, 48 h, read-out: Activity
HCT-116 [17] = assay: Induction of apoptosis in human HCT116 cells assessed as early apoptotic cells at 1 uM after 48 hrs by Annexin-V/PI-staining based flow cytometry (reference value: 0.54%); format: functional
HCT-116 [18] = assay: Induction of apoptosis in human HCT116 cells assessed as late apoptotic cells at 1 uM after 48 hrs by Annexin-V/PI-staining based flow cytometry (reference value: 3.34%); format: functional
HCT-116 [19] = assay: Induction of apoptosis in human HCT116 cells assessed as necrotic cells at 1 uM after 48 hrs by Annexin-V/PI-staining based flow cytometry (reference value: […]); format: functional
HCT-116 [20] = assay: Induction of apoptosis in human HCT116 cells assessed as necrotic cells after 48 hrs by Annexin-V/PI-staining based flow cytometry; format: functional, cell-based
HCT-116 [21] = assay: Induction of apoptosis in human HCT116 cells assessed as increase in bax protein expression at 0.5 to 5 uM after 12 hrs by Western blot analysis; format: functional, cell-based
HCT-116 [22] = assay: Induction of apoptosis in human HCT116 cells assessed as decrease in bcl-xl protein expression at 0.5 to 5 uM after 12 hrs by Western blot analysis; format: functional, cell-based
Aurora kinase C = target: T4, Aurora kinase C (Homo sapiens, UniProt Q9UQB9)
T4 sequence (Q9UQB9 whole entry): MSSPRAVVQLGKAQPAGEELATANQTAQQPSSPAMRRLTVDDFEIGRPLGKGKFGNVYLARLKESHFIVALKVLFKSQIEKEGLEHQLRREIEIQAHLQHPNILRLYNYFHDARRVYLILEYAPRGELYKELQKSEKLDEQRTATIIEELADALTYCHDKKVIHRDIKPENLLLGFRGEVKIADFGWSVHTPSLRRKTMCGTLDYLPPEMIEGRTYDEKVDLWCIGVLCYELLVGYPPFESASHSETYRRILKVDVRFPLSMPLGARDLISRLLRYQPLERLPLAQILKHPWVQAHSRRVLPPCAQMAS
Description: Inhibition of recombinant full-length His-tagged human Aurora C expressed in baculovirus expression system

T2 sequence (Q96GD4 whole entry): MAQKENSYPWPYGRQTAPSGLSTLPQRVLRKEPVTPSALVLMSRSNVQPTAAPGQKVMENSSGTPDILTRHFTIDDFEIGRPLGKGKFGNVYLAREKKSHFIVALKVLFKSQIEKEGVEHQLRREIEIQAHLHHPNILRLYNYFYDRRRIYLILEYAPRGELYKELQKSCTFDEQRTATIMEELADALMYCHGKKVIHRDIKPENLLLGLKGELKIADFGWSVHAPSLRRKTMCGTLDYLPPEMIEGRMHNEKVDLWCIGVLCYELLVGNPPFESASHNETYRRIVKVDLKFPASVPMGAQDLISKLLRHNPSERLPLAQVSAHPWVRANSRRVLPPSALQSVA
Chain of Phosphatidylinositol 4,5-bisphosphate 3-kinase catalytic subunit alpha isoform (Homo sapiens) (P42336 whole entry, canonical isoform): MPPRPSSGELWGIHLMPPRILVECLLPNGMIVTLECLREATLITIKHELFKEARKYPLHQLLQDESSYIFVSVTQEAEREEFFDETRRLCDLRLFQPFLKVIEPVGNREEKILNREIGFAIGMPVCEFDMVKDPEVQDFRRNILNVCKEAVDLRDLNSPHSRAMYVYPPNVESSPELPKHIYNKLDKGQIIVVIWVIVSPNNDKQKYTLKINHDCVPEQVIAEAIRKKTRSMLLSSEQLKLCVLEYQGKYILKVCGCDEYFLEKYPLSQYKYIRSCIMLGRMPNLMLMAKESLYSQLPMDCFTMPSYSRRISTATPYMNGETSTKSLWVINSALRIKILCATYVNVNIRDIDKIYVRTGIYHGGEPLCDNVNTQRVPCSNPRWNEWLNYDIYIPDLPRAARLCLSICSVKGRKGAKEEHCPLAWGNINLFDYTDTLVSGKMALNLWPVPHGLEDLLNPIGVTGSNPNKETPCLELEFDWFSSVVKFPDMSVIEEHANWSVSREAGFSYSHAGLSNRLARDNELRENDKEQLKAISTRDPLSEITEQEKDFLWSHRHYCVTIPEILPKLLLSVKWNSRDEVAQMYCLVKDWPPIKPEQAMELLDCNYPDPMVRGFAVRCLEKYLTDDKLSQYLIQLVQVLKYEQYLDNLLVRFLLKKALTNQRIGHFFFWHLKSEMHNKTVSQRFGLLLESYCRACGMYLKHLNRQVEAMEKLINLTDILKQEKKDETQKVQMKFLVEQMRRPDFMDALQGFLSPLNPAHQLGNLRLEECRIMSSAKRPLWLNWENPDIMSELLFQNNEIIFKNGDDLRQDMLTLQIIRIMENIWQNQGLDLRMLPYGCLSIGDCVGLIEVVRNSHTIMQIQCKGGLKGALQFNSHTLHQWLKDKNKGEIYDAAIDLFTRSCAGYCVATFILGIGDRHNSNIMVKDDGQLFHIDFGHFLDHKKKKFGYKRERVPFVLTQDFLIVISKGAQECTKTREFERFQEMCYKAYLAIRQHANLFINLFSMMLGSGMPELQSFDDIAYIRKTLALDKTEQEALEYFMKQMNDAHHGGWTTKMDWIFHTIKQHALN
Chain of Fibroblast growth factor receptor 1 (Homo sapiens) (P11362 22-822 limits assumed): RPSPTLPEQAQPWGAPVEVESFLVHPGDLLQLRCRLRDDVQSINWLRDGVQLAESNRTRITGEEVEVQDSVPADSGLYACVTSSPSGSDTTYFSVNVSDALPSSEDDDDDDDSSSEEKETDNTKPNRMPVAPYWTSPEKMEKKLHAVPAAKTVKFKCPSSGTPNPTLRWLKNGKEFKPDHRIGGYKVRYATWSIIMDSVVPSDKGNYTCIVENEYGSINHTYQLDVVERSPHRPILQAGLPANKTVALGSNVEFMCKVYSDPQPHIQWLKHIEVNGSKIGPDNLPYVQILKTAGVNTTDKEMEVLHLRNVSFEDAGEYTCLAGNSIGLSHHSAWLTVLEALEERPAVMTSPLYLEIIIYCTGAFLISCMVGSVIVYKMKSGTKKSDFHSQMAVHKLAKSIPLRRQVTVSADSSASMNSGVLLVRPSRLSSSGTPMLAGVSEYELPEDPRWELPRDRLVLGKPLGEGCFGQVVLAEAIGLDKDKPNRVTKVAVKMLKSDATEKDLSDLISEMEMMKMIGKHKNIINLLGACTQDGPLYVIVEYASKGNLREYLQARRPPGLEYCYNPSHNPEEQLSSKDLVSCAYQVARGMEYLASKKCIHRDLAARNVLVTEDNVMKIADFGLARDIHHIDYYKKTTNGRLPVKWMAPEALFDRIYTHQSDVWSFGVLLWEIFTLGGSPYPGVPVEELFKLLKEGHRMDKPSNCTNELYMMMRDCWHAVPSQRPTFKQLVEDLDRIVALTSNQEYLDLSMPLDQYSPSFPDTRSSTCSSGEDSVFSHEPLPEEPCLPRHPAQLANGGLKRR
Chain of Vascular endothelial growth factor receptor 2 (Homo sapiens) (P35968 whole entry, canonical isoform): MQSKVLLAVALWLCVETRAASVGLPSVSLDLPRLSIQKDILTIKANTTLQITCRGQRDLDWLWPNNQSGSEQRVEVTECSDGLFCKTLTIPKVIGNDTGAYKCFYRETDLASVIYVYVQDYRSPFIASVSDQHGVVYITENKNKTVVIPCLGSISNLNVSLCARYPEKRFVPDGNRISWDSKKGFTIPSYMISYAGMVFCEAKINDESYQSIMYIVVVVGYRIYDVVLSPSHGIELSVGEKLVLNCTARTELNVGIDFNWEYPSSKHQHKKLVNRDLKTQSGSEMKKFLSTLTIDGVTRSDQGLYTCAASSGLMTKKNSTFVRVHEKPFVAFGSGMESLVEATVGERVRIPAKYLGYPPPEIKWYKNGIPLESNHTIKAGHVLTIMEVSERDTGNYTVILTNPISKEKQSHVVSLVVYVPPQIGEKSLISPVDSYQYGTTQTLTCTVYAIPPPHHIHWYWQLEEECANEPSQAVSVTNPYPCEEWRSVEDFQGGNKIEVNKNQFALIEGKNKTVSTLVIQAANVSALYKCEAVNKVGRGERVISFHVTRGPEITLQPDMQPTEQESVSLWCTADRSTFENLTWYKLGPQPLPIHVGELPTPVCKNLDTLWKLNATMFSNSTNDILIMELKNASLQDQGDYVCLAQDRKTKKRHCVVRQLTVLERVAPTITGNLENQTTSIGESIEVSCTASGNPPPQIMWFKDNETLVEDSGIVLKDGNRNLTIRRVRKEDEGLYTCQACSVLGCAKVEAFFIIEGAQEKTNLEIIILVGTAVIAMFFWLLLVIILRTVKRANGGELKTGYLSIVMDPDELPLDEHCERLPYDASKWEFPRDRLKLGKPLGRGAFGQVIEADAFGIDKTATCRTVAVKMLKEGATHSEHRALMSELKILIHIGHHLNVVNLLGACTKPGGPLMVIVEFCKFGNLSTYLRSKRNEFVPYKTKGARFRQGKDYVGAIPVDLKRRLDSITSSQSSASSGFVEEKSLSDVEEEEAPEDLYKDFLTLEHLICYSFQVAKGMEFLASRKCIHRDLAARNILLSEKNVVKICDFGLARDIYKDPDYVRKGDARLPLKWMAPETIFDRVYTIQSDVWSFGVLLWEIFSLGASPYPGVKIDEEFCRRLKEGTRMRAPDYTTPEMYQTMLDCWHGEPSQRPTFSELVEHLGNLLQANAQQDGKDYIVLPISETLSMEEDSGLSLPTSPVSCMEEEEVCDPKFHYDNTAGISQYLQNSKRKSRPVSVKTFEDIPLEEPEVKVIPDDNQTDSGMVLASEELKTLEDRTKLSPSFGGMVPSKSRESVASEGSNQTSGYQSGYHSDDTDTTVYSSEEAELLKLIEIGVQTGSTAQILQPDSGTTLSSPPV

IC50 (A549): 5.88 µM
IC50 (HCT-116 [1]): 2.51 µM
IC50 (MCF7): 2.33 µM
Compound: O=C(Nc1ccc(Nc2nccc(NC3CCCC3)n2)cc1)Nc1ccc(Cl)c(C(F)(F)F)c1

IC50 (A549): 12.1 µM
IC50 (HCT-116 [1]): 1.31 µM
IC50 (MCF7): 20.5 µM
IC50 (Aurora kinase A): 0.309 µM
IC50 (Aurora kinase B [2]): 0.293 µM
inhibition [3]: < 1%
inhibition [4]: 2.4%
inhibition [5]: < 1%
inhibition [6]: Active
inhibition (Aurora kinase B [7]): Active
Compound: O=C(Cc1ccc(Nc2nccc(NC3CCCC3)n2)cc1)NC1CCCCC1
viability at 0.1 µM (HCT-116 [8]): 87.8%
Activity (HCT-116 [9]): 1.9%
Activity (HCT-116 [10]): 5.89%
Activity (HCT-116 [11]): 4.39%
viability at 0.5 µM (HCT-116 [12]): 58%
Activity (HCT-116 [13]): 3.99%
Activity (HCT-116 [14]): 22.54%
Activity (HCT-116 [15]): 15.45%
viability at 1 µM (HCT-116 [16]): 7.46%
Activity (HCT-116 [17]): 0.84%
Activity (HCT-116 [18]): 45.64%
Activity (HCT-116 [19]): 46.07%
Activity (HCT-116 [20]): Dose-dependent effect
Activity (HCT-116 [21]): Active
Activity (HCT-116 [22]): Active

IC50 (A549): 7.32 µM
IC50 (HCT-116 [1]): 4.24 µM
IC50 (MCF7): 4.61 µM
Compound: CCCNc1ccnc(Nc2ccc(NC(=O)Nc3ccc(Cl)c(C(F)(F)F)c3)cc2)n1

IC50 (A549): > 50 µM
IC50 (HCT-116 [1]): > 50 µM
IC50 (MCF7): > 50 µM
Compound: O=C(Nc1ccc(Nc2nccc(Nc3ccccc3)n2)cc1)Nc1ccc(Cl)c(C(F)(F)F)c1

IC50 (A549): 8.27 µM
IC50 (HCT-116 [1]): 5.44 µM
IC50 (MCF7): 5.7 µM
Compound: O=C(Cc1cccc(C(F)(F)F)c1)Nc1ccc(Nc2nccc(NC3CCCC3)n2)cc1

IC50 (A549): 3.9 µM
IC50 (HCT-116 [1]): 1.49 µM
IC50 (MCF7): 17.4 µM
Compound: Cc1cc(Nc2cc(N3CCN(C)CC3)nc(Sc3ccc(NC(=O)C4CC4)cc3)n2)n[nH]1 [TOZASERTIB]

IC50 (A549): 3.94 µM
IC50 (HCT-116 [1]): 2.44 µM
IC50 (MCF7): 17.6 µM
Compound: O=C(CC1CCCCC1)Nc1ccc(Nc2nccc(NC3CCCC3)n2)cc1

IC50 (A549): 18.6 µM
IC50 (HCT-116 [1]): 8.1 µM
IC50 (MCF7): 27.9 µM
Compound: O=C(Nc1ccc(Nc2nccc(Nc3ccccc3Cl)n2)cc1)Nc1ccc(Cl)c(C(F)(F)F)c1

Compound: c1nc2nc(Nc3ccc(N4CCOCC4)cc3)nc(NC3CCCCC3)c2[nH]1 [REVERSINE]
IC50 (Aurora kinase C): 0.4 µM

IC50 (A549): 8.05 µM
IC50 (HCT-116 [1]): 4.82 µM
IC50 (MCF7): 10.4 µM
Compound: O=C(Nc1ccc(Nc2nccc(Nc3cccc(Cl)c3)n2)cc1)Nc1ccc(Cl)c(C(F)(F)F)c1

IC50 (A549): 6.32 µM
IC50 (HCT-116 [1]): 4.66 µM
IC50 (MCF7): 12.8 µM
Compound: O=C(Nc1ccc(Nc2nccc(Nc3ccc(Cl)cc3)n2)cc1)Nc1ccc(Cl)c(C(F)(F)F)c1

IC50 (A549): 7.43 µM
IC50 (HCT-116 [1]): 5.95 µM
IC50 (MCF7): 10.8 µM
Compound: O=C(Nc1ccc(Nc2nccc(NC3CCCCC3)n2)cc1)Nc1ccc(Cl)c(C(F)(F)F)c1

IC50 (A549): 8.61 µM
IC50 (HCT-116 [1]): 4.85 µM
IC50 (MCF7): 9.77 µM
Compound: Cn1cc(Nc2ccnc(Nc3ccc(NC(=O)Nc4ccc(Cl)c(C(F)(F)F)c4)cc3)n2)cn1

IC50 (A549): 5.32 µM
IC50 (HCT-116 [1]): 1.09 µM
IC50 (MCF7): 19.2 µM
IC50 (Aurora kinase B [2]): 0.329 µM
inhibition [3]: 4.5%
inhibition [4]: 16.8%
inhibition [5]: < 1%
Compound: O=C(Nc1ccc(Nc2nccc(NC3CCCC3)n2)cc1)NC1CCCCC1

IC50 (A549): 4.9 µM
IC50 (HCT-116 [1]): 2.41 µM
IC50 (MCF7): 5.18 µM
Compound: O=C(Nc1ccc(Nc2nccc(NC3CCCC3)n2)cc1)Nc1cccc(C(F)(F)F)c1

IC50 (A549): 18.5 µM
IC50 (HCT-116 [1]): 16.4 µM
IC50 (MCF7): 38.2 µM
Compound: O=C(Nc1ccc(Nc2nccc(NC3CC3)n2)cc1)Nc1ccc(Cl)c(C(F)(F)F)c1

IC50 (A549): 3.4 µM
IC50 (HCT-116 [1]): 2.5 µM
IC50 (MCF7): 16.4 µM
Compound: O=C(Cc1ccc(Nc2nccc(NC3CCCC3)n2)cc1)Nc1cccc(C(F)(F)F)c1

IC50 (A549): 11.8 µM
IC50 (HCT-116 [1]): 5.31 µM
IC50 (MCF7): 22 µM
Compound: O=C(Nc1ccc(Cl)cc1)Nc1ccc(Nc2nccc(NC3CCCC3)n2)cc1
